Experimental data as given in PubChem BioAssay AID196 (DTP/NCI, 2004).
“And” between values parts separate entries of the source, which are not always exact repeats. Identical values can stand only once. Inconclusive results and toxic doses are left out.

System: BDF1 mice, intracerebral B16 melanoma, median survival T/C
Assay: NCI In Vivo Anticancer Drug Screen. Data for tumor model B16 Melanoma (intracerebral) in B6D2F1 (BDF1) mice
Details: endpoint: median survival time, higher = longer survival
Description: The antitumor activity of compounds was measured in mice bearing transplantable tumors. Survival or tumor size were measured and the results are expressed as the measurement made in the treated group (T) divided by the measurement made in the vehicle treated control group (C). The tumor model used in this assay is B16 Melanoma (intracerebral) in B6D2F1 (BDF1) mice

[1] = dose: 4.0 mg/kg/injection, schedule: Q01DX009 (ip), vehicle: saline with Tween-80
[2] = dose: 8.0 mg/kg/injection, schedule: Q01DX009 (ip), vehicle: saline with Tween-80
[3] = dose: 16.0 mg/kg/injection, schedule: Q01DX009 (ip), vehicle: saline with Tween-80

C[C@@H]1C[C@H]2[C@@H]3CCC4=CC(=O)C=C[C@]4(C)[C@@]3(F)[C@@H](O)C[C@]2(C)[C@@]1(O)C(=O)CO
T/C (dose: 0.75 mg/kg/injection, schedule: Q01DX009 (ip), vehicle: saline): 108 % of control
T/C (dose: 1.5 mg/kg/injection, schedule: Q01DX009 (ip), vehicle: saline): 104 % of control
T/C (dose: 3.0 mg/kg/injection, schedule: Q01DX009 (ip), vehicle: saline): 118 % of control and 104 % of control
T/C (dose: 6.0 mg/kg/injection, schedule: Q01DX009 (ip), vehicle: saline): 104 % of control and 112 % of control
T/C (dose: 12.0 mg/kg/injection, schedule: Q01DX009 (ip), vehicle: saline): 122 % of control

O=C1c2ccccc2C(=O)c2c(NCCNCCO)ccc(NCCNCCO)c21
T/C (dose: 1.0 mg/kg/injection, schedule: Q01DX005 (ip), vehicle: saline with Tween-80): 120 % of control and 111 % of control
T/C (dose: 1.0 mg/kg/injection, schedule: Q01DX005 (ip), vehicle: saline): 99 % of control and 107 % of control
T/C (dose: 2.0 mg/kg/injection, schedule: Q01DX005 (ip), vehicle: saline with Tween-80): 118 % of control and 109 % of control
T/C (dose: 2.0 mg/kg/injection, schedule: Q01DX005 (ip), vehicle: saline): 120 % of control and 99 % of control
T/C (dose: 4.0 mg/kg/injection, schedule: Q01DX005 (ip), vehicle: saline with Tween-80): 109 % of control
T/C (dose: 4.0 mg/kg/injection, schedule: Q01DX005 (ip), vehicle: saline): 104 % of control and 112 % of control
T/C [1]: 99 % of control and 102 % of control
T/C (dose: 4.0 mg/kg/injection, schedule: Q01DX009 (ip), vehicle: saline): 95 % of control and 103 % of control
T/C [2]: 93 % of control and 102 % of control
T/C (dose: 8.0 mg/kg/injection, schedule: Q01DX009 (ip), vehicle: saline): 98 % of control and 102 % of control
T/C (dose: 16.0 mg/kg/injection, schedule: Q01DX005 (ip), vehicle: Klucel (hydroxypropylcellulose) (HPC)): 116 % of control
T/C [3]: 100 % of control
T/C (dose: 16.0 mg/kg/injection, schedule: Q01DX009 (ip), vehicle: saline): 102 % of control and 103 % of control
T/C (dose: 32.0 mg/kg/injection, schedule: Q01DX005 (ip), vehicle: Klucel (hydroxypropylcellulose) (HPC)): 107 % of control
T/C (dose: 32.0 mg/kg/injection, schedule: Q01DX009 (ip), vehicle: saline): 86 % of control

O=NN(CCCl)C(=O)NC1CCC(=O)NC1=O (centres undefined)
T/C (dose: 0.5 mg/kg/injection, schedule: Q01DX009 (ip), vehicle: saline with Tween-80): 108 % of control
T/C (dose: 2.0 mg/kg/injection, schedule: Q01DX009 (ip), vehicle: saline with Tween-80): 153 % of control
T/C [1]: 202 % of control
T/C (dose: 4.32 mg/kg/injection, schedule: Q01DX001 (ip), vehicle: Klucel (hydroxypropylcellulose) (HPC)): 111 % of control
T/C (dose: 6.48 mg/kg/injection, schedule: Q01DX001 (ip), vehicle: other): 120 % of control
T/C (dose: 7.2 mg/kg/injection, schedule: Q01DX001 (ip), vehicle: Klucel (hydroxypropylcellulose) (HPC)): 122 % of control
T/C [2]: 337 % of control
T/C (dose: 11.9 mg/kg/injection, schedule: Q01DX001 (ip), vehicle: Klucel (hydroxypropylcellulose) (HPC)): 172 % of control
T/C (dose: 12.0 mg/kg/injection, schedule: Q01DX001 (ip), vehicle: Klucel (hydroxypropylcellulose) (HPC)): 150 % of control
T/C [3]: 89 % of control
T/C (dose: 17.8 mg/kg/injection, schedule: Q01DX001 (ip), vehicle: Klucel (hydroxypropylcellulose) (HPC)): 201 % of control
T/C (dose: 18.0 mg/kg/injection, schedule: Q01DX001 (ip), vehicle: other): 338 % of control
T/C (dose: 20.0 mg/kg/injection, schedule: Q01DX001 (ip), vehicle: Klucel (hydroxypropylcellulose) (HPC)): 204 % of control
T/C (dose: 26.7 mg/kg/injection, schedule: Q01DX001 (ip), vehicle: Klucel (hydroxypropylcellulose) (HPC)): 187 % of control
T/C (dose: 40.0 mg/kg/injection, schedule: Q01DX001 (ip), vehicle: Klucel (hydroxypropylcellulose) (HPC)): 120 % of control

COc1ccc2cc1Oc1ccc(cc1)C[C@H]1c3cc(c(OC)cc3CCN1C)Oc1c(OC)c(OC)cc3c1[C@H](C2)N(C)CC3
T/C (dose: 50.0 mg/kg/injection, schedule: Q01DX005 (ip), vehicle: Klucel (hydroxypropylcellulose) (HPC)): 100 % of control
T/C (dose: 100.0 mg/kg/injection, schedule: Q01DX005 (ip), vehicle: Klucel (hydroxypropylcellulose) (HPC)): 98 % of control and 103 % of control
T/C (dose: 200.0 mg/kg/injection, schedule: Q01DX005 (ip), vehicle: Klucel (hydroxypropylcellulose) (HPC)): 119 % of control and 101 % of control
T/C (dose: 400.0 mg/kg/injection, schedule: Q01DX005 (ip), vehicle: Klucel (hydroxypropylcellulose) (HPC)): 95 % of control and 113 % of control
